{"source": "paper PMC11945657", "about": "“Microwave-Assisted Synthesis of Morpholine-Based Chalcones as Reversible MAO-A Inhibitors in the Management of Mental Depression” (Pharmaceuticals, 2025)", "key": {"[1]": {"tested_on": "MAO-A", "conditions": "Figure 1, read-out: MAO-A inhibition, cited from earlier work"}, "[2]": {"target": "T1, hMAO-A (Homo sapiens, UniProt P21397)", "T1 sequence (P21397 1-527)": "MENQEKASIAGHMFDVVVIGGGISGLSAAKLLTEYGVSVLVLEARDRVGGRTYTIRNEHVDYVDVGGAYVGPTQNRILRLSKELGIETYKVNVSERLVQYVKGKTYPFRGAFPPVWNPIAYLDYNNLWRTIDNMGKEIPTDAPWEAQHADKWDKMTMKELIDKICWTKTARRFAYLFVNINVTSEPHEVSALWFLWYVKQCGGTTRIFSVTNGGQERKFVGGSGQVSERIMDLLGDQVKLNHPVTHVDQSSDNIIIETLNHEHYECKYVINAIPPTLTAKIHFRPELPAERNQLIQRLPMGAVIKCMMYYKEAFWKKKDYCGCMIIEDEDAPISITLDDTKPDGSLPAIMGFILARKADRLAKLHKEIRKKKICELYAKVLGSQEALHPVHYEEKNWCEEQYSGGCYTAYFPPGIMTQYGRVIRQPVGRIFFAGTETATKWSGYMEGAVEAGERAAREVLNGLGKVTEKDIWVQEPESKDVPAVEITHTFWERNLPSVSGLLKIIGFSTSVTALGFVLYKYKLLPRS", "parameters": "purchased Sigma-Aldrich", "conditions": "Figure 1, read-out: hMAO-A inhibition; cited from earlier work"}, "[3]": {"target": "T1, hMAO-A", "experiment": "Reversibility inhibition study (dilution method)", "type": "biochemical", "parameters": "purchased Sigma-Aldrich", "conditions": "for reversibility of hMAO-A inhibition: dilution method", "protocol": "Reversibility inhibition investigations were conducted using dilution methods as per the reported protocol, and all experiments were performed in triplicate. […] Substrate and buffer solutions were used for the dilution."}, "[4]": {"experiment": "DPPH free radical scavenging antioxidant assay", "conditions": "for antioxidant potential in the DPPH assay: concentration not given", "protocol": "H2O2 produced during metabolic events in the brain may be crucial for signaling and metabolic functions. The compounds were screened to check their potential to inhibit ROS through the DPPH assay. […] However, further studies are required to confirm this effect.\nThe DPPH approach, which gauges the free radical scavenging activity, was used to evaluate the antioxidant properties of the compounds. The test was performed according to the literature method. The stock solution of DPPH (0.5 mM) was prepared, and methanol was used to create each dilution. The different concentrations (10, 25, 50, 75, and 100 μM) of the test compounds (C1–C15) were prepared and compared with the standard ascorbic acid. The percentage antioxidant activity of the compounds was calculated using the following formula: % Antioxidant activity = [(Aabsorbance − Atest)/Aabsorbance] × 100."}, "[5]": {"target": "T2, hMAO-B (Homo sapiens, UniProt P27338)", "T2 sequence (P27338 1-520)": "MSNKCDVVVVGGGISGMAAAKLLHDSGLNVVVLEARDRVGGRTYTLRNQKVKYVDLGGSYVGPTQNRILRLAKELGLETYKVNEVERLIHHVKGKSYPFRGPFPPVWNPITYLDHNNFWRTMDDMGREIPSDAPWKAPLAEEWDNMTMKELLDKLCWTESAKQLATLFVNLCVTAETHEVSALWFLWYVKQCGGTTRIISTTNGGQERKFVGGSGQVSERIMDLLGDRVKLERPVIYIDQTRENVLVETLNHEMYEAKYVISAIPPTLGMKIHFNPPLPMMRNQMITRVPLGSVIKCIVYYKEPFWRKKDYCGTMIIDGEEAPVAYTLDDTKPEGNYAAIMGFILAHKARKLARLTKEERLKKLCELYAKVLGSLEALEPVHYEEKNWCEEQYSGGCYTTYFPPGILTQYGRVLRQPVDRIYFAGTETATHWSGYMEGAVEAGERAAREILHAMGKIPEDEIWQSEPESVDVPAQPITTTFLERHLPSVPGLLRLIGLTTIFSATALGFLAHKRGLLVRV", "experiment": "MAO inhibition assay (Amplex Red, fluorimetric), MAO-B"}, "[6]": {"target": "T1, hMAO-A", "experiment": "MAO inhibition assay (Amplex Red, fluorimetric), MAO-A", "conditions": "for inhibition at 20 µM: read-out: Percentage Inhibition at 20 μM MAO-A, 20 μM"}, "[7]": {"conditions": "0.1 × IC50, after 100 times dilution with tyramine substrate"}, "[8]": {"conditions": "1 × IC50, after 100 times dilution with tyramine substrate"}, "[9]": {"conditions": "read-out: Percentage Inhibition at 20 μM MAO-B"}}, "note": "Where “and” joins values, the source holds several entries; their conditions need not be identical. Identical values can stand only once. Like-named read-outs stand apart in the source and are kept apart here."}
{"smiles": "COc1cc(OC)c(/C=C/C(=O)c2ccc(Br)cc2)c(OC)c1", "note": "[Compound 1]", "values": [{"measurement": "IC50", "setting": "[1]", "value": "0.56 ± 0.076", "unit": "µM"}]}
{"smiles": "CCOc1ccc(C(=O)/C=C/c2ccc(F)cc2)cc1", "note": "[Compound 2]", "values": [{"measurement": "IC50", "setting": "[2]", "value": "4.63 ± 0.15", "unit": "µM"}]}
{"smiles": "O=C(/C=C/c1ccc(C(F)(F)F)cc1)c1ccc[nH]1", "note": "[Compound 3]", "values": [{"measurement": "IC50", "setting": "[1]", "value": "3.81 ± 0.387", "unit": "µM"}]}
{"smiles": "COc1cc(OC)c(/C=C/C(=O)c2ccc(F)cc2)c(OC)c1", "note": "[Compound 4]", "values": [{"measurement": "IC50", "setting": "[1]", "value": "0.444 ± 0.039", "unit": "µM"}]}
{"smiles": "COc1cc(C(=O)/C=C/c2ccc([N+](=O)[O-])cc2)cc(OC)c1OC", "note": "[Compound 5]", "values": [{"measurement": "Ki", "setting": "[1]; Ki", "value": "3.47 ± 0.09", "unit": "µM"}]}
{"smiles": "O=C(/C=C/c1ccc(F)c(F)c1)c1ccc(N2CCOCC2)cc1", "note": "[Compound C6, (E)-3-(3,4-Difluorophenyl)-1-(4-morpholinophenyl)prop-2-en-1-one]", "values": [{"measurement": "% MAO-A activity", "setting": "[3]; [7]", "value": 68.83, "unit": "%"}, {"measurement": "% MAO-A activity", "setting": "[3]; [8]", "value": 38.95, "unit": "%"}, {"measurement": "% MAO-A activity", "setting": "[3]; 10 × IC50, before dilution", "value": 8.32, "unit": "%"}, {"measurement": "% MAO-A activity", "setting": "[3]; 100 × IC50, before dilution", "value": 3.41, "unit": "%"}, {"measurement": "reversibility of hMAO-A inhibition", "setting": "[3]", "value": "reversibly inhibit"}, {"measurement": "% Antioxidant Activity", "setting": "[4]; 10 µM", "value": 12.25, "unit": "%"}, {"measurement": "% Antioxidant Activity", "setting": "[4]; 25 µM", "value": 24.46, "unit": "%"}, {"measurement": "% Antioxidant Activity", "setting": "[4]; 50 µM", "value": 36.03, "unit": "%"}, {"measurement": "% Antioxidant Activity", "setting": "[4]; 75 µM", "value": "50% and 53.39%"}, {"measurement": "% Antioxidant Activity", "setting": "[4]; 100 µM", "value": 55.16, "unit": "%"}, {"measurement": "antioxidant potential in the DPPH assay", "setting": "[4]", "value": "more than 50%"}, {"measurement": "inhibition at 20 µM", "setting": "[5]; read-out: IC50 Values MAO-B", "value": "< 50", "unit": "%"}, {"measurement": "inhibition at 20 µM", "setting": "[5]; [9]", "value": 31.9, "unit": "%"}, {"measurement": "IC50", "setting": "[6]", "value": "8.45 ± 0.19", "unit": "µM"}, {"measurement": "Percentage Inhibition at 20 μM MAO-A", "setting": "[6]", "value": 71.67, "unit": "%"}, {"measurement": "inhibition at 20 µM", "setting": "[6]", "value": 71.6, "unit": "%"}]}
{"smiles": "O=C(/C=C/c1ccc(F)cc1F)c1ccc(N2CCOCC2)cc1", "note": "[Compound C14, (E)-3-(2,4-Difluorophenyl)-1-(4-morpholinophenyl)prop-2-en-1-one]", "values": [{"measurement": "% MAO-A activity", "setting": "[3]; [7]", "value": 65.33, "unit": "%"}, {"measurement": "% MAO-A activity", "setting": "[3]; [8]", "value": 35.76, "unit": "%"}, {"measurement": "% MAO-A activity", "setting": "[3]; 10 × IC50, before dilution", "value": 6.67, "unit": "%"}, {"measurement": "% MAO-A activity", "setting": "[3]; 100 × IC50, before dilution", "value": 3.28, "unit": "%"}, {"measurement": "reversibility of hMAO-A inhibition", "setting": "[3]", "value": "reversibly inhibit"}, {"measurement": "% Antioxidant Activity", "setting": "[4]; 10 µM", "value": 10.51, "unit": "%"}, {"measurement": "% Antioxidant Activity", "setting": "[4]; 25 µM", "value": 18.21, "unit": "%"}, {"measurement": "% Antioxidant Activity", "setting": "[4]; 50 µM", "value": 41.12, "unit": "%"}, {"measurement": "% Antioxidant Activity", "setting": "[4]; 75 µM", "value": "50% and 53.12%"}, {"measurement": "% Antioxidant Activity", "setting": "[4]; 100 µM", "value": 59.51, "unit": "%"}, {"measurement": "antioxidant potential in the DPPH assay", "setting": "[4]", "value": "more than 50%"}, {"measurement": "inhibition at 20 µM", "setting": "[5]; read-out: IC50 Values MAO-B", "value": "< 50", "unit": "%"}, {"measurement": "inhibition at 20 µM", "setting": "[5]; [9]", "value": 35.3, "unit": "%"}, {"measurement": "IC50", "setting": "[6]", "value": "7.91 ± 0.08", "unit": "µM"}, {"measurement": "Percentage Inhibition at 20 μM MAO-A", "setting": "[6]", "value": 75.45, "unit": "%"}, {"measurement": "inhibition at 20 µM", "setting": "[6]", "value": 75.4, "unit": "%"}]}
